Results as given in PubChem BioAssay (NCI).
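Cultured in 96-well plates, cells were exposed to test compound for 48 hours across five concentrations. The concentration for full growth arrest is given as TGI.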

What was measured:
Experiment in all cases: growth of human tumour cells (NCI), 48 h
NCI-H23 lung = tested on: NCI-H23 lung
HCT-116 colon = tested on: HCT-116 colon
LOX IMVI melanoma = tested on: LOX IMVI melanoma
DLD-1 colon = tested on: DLD-1 colon
EKVX NSCLC = tested on: EKVX NSCLC
RPMI-8226 leukemia = tested on: RPMI-8226 leukemia
UACC-62 melanoma = tested on: UACC-62 melanoma
HCC-2998 colon = tested on: HCC-2998 colon
OVCAR-4 ovarian = tested on: OVCAR-4 ovarian
MOLT-4 leukemia = tested on: MOLT-4 leukemia
UO-31 renal = tested on: UO-31 renal
SNB-78 CNS = tested on: SNB-78 CNS
ACHN renal = tested on: ACHN renal
SNB-75 CNS = tested on: SNB-75 CNS
OVCAR-8 ovarian = tested on: OVCAR-8 ovarian
786-0 renal = tested on: 786-0 renal
IGROV1 ovarian = tested on: IGROV1 ovarian
RXF 393 renal = tested on: RXF 393 renal
NCI-H226 lung = tested on: NCI-H226 lung
M19-MEL melanoma = tested on: M19-MEL melanoma
M14 melanoma = tested on: M14 melanoma
NCI-H460 lung = tested on: NCI-H460 lung
HL-60(TB) leukemia = tested on: HL-60(TB) leukemia
A549 NSCLC = tested on: A549 NSCLC
SF-539 CNS = tested on: SF-539 CNS
KM20L2 colon = tested on: KM20L2 colon
U251 CNS = tested on: U251 CNS
OVCAR-5 ovarian = tested on: OVCAR-5 ovarian
SR leukemia = tested on: SR leukemia
LXFL 529 NSCLC = tested on: LXFL 529 NSCLC
UACC-257 melanoma = tested on: UACC-257 melanoma
SK-MEL-28 melanoma = tested on: SK-MEL-28 melanoma
DMS 114 small cell lung = tested on: DMS 114 small cell lung
SNB-19 CNS = tested on: SNB-19 CNS
HCT-15 colon = tested on: HCT-15 colon
DMS 273 small cell lung = tested on: DMS 273 small cell lung
HOP-62 NSCLC = tested on: HOP-62 NSCLC
SK-OV-3 ovarian = tested on: SK-OV-3 ovarian
SN12C renal = tested on: SN12C renal
COLO 205 colon = tested on: COLO 205 colon
TK-10 renal = tested on: TK-10 renal
SF-268 CNS = tested on: SF-268 CNS
SW-620 colon = tested on: SW-620 colon
CCRF-CEM leukemia = tested on: CCRF-CEM leukemia
XF 498 CNS = tested on: XF 498 CNS
HT29 colon = tested on: HT29 colon
SK-MEL-5 melanoma = tested on: SK-MEL-5 melanoma
NCI-H522 lung = tested on: NCI-H522 lung
OVCAR-3 ovarian = tested on: OVCAR-3 ovarian
SK-MEL-2 melanoma = tested on: SK-MEL-2 melanoma
MALME-3M melanoma = tested on: MALME-3M melanoma
KM12 colon = tested on: KM12 colon
HOP-18 NSCLC = tested on: HOP-18 NSCLC
SF-295 CNS = tested on: SF-295 CNS
K-562 leukemia = tested on: K-562 leukemia
CAKI-1 renal = tested on: CAKI-1 renal
HOP-92 NSCLC = tested on: HOP-92 NSCLC
A498 renal = tested on: A498 renal

CCN(CC)CCNC(=O)c1ccccc1Nc1c(Cl)cccc1Cl
TGI (NCI-H23 lung): 33.3 µM | TGI (HCT-116 colon): 25.7 µM | TGI (LOX IMVI melanoma): 24.3 µM | TGI (DLD-1 colon): 24.7 µM | TGI (EKVX NSCLC): 26.6 µM | TGI (RPMI-8226 leukemia): 30.2 µM | TGI (UACC-62 melanoma): 32.1 µM | TGI (HCC-2998 colon): 21 µM | TGI (OVCAR-4 ovarian): 30.2 µM | TGI (MOLT-4 leukemia): 31.2 µM | TGI (UO-31 renal): 22.2 µM | TGI (SNB-78 CNS): 33.1 µM | TGI (ACHN renal): 31.3 µM | TGI (SNB-75 CNS): 23.8 µM | TGI (OVCAR-8 ovarian): 31.5 µM | TGI (786-0 renal): 19 µM | TGI (IGROV1 ovarian): 36.1 µM | TGI (RXF 393 renal): 27.9 µM | TGI (NCI-H226 lung): 38.5 µM | TGI (M19-MEL melanoma): 30.2 µM | TGI (M14 melanoma): 34.5 µM | TGI (NCI-H460 lung): 16 µM | TGI (HL-60(TB) leukemia): 25.5 µM | TGI (A549 NSCLC): 32.6 µM | TGI (SF-539 CNS): 32.7 µM | TGI (KM20L2 colon): 7.27 µM | TGI (U251 CNS): 20.7 µM | TGI (OVCAR-5 ovarian): 20.4 µM | TGI (SR leukemia): 34.2 µM | TGI (LXFL 529 NSCLC): 30.5 µM | TGI (UACC-257 melanoma): 29 µM | TGI (SK-MEL-28 melanoma): 33 µM | TGI (DMS 114 small cell lung): 24.8 µM | TGI (SNB-19 CNS): 30.9 µM | TGI (HCT-15 colon): 26 µM | TGI (DMS 273 small cell lung): 30.6 µM | TGI (HOP-62 NSCLC): 24.2 µM | TGI (SK-OV-3 ovarian): 30.4 µM | TGI (SN12C renal): 27.1 µM | TGI (COLO 205 colon): 26.7 µM | TGI (TK-10 renal): 24.8 µM | TGI (SF-268 CNS): 34.7 µM | TGI (SW-620 colon): 29.6 µM | TGI (CCRF-CEM leukemia): 35.2 µM | TGI (XF 498 CNS): 16.5 µM | TGI (HT29 colon): 19 µM | TGI (SK-MEL-5 melanoma): 24.2 µM

O=C(Cc1ccccc1)NN1C(=O)C(Cl)C1c1cc(Br)cc(Br)c1O (stereo not drawn)
TGI (NCI-H23 lung): 33.2 µM | TGI (HCT-116 colon): 16 µM | TGI (LOX IMVI melanoma): 40 µM | TGI (DLD-1 colon): > 100 µM | TGI (EKVX NSCLC): 68.1 µM | TGI (NCI-H522 lung): 16.9 µM | TGI (OVCAR-3 ovarian): 10.7 µM | TGI (RPMI-8226 leukemia): 29.1 µM | TGI (UACC-62 melanoma): 61.6 µM | TGI (HCC-2998 colon): 31.1 µM | TGI (OVCAR-4 ovarian): 80.4 µM | TGI (MOLT-4 leukemia): 13.2 µM | TGI (UO-31 renal): 20.6 µM | TGI (SNB-78 CNS): 83 µM | TGI (ACHN renal): > 100 µM | TGI (SNB-75 CNS): 56.1 µM | TGI (OVCAR-8 ovarian): > 100 µM | TGI (786-0 renal): 36.7 µM | TGI (IGROV1 ovarian): 58.9 µM | TGI (RXF 393 renal): 40.4 µM | TGI (NCI-H226 lung): 36.9 µM | TGI (M19-MEL melanoma): 63.2 µM | TGI (M14 melanoma): 45.6 µM | TGI (NCI-H460 lung): 22.4 µM | TGI (SK-MEL-2 melanoma): 36.6 µM | TGI (HL-60(TB) leukemia): 10.1 µM | TGI (A549 NSCLC): 76.1 µM | TGI (KM20L2 colon): > 100 µM | TGI (U251 CNS): 31.4 µM | TGI (OVCAR-5 ovarian): 38.5 µM | TGI (MALME-3M melanoma): 51.9 µM | TGI (SR leukemia): 13.1 µM | TGI (LXFL 529 NSCLC): 50 µM | TGI (UACC-257 melanoma): 39.4 µM | TGI (SK-MEL-28 melanoma): 35.3 µM | TGI (DMS 114 small cell lung): 17.8 µM | TGI (SNB-19 CNS): 38.9 µM | TGI (KM12 colon): > 100 µM | TGI (HOP-18 NSCLC): 31.4 µM | TGI (SF-295 CNS): 98.7 µM | TGI (HCT-15 colon): > 100 µM | TGI (DMS 273 small cell lung): 65.2 µM | TGI (HOP-62 NSCLC): 54 µM | TGI (SK-OV-3 ovarian): 62.6 µM | TGI (SN12C renal): > 100 µM | TGI (K-562 leukemia): 34.1 µM | TGI (COLO 205 colon): 44.8 µM | TGI (TK-10 renal): > 100 µM | TGI (SF-268 CNS): 43.3 µM | TGI (SW-620 colon): 30.5 µM | TGI (CAKI-1 renal): 78.5 µM | TGI (CCRF-CEM leukemia): 24.1 µM | TGI (XF 498 CNS): 79.3 µM | TGI (HT29 colon): 63.4 µM | TGI (SK-MEL-5 melanoma): 29.6 µM

CSc1ccc2c(cc1=O)C(NC(=O)c1cc(O)c(OC(=O)O)c(O)c1)CCc1cc(O)c(O)c(O)c1-2 (stereo not drawn)
TGI (NCI-H23 lung): 42.5 µM | TGI (HCT-116 colon): 29.1 µM | TGI (LOX IMVI melanoma): 24.8 µM | TGI (DLD-1 colon): 43.9 µM | TGI (EKVX NSCLC): 38.8 µM | TGI (NCI-H522 lung): 21.8 µM | TGI (OVCAR-3 ovarian): 40 µM | TGI (RPMI-8226 leukemia): 39.8 µM | TGI (UACC-62 melanoma): 30.6 µM | TGI (HCC-2998 colon): > 90 µM | TGI (OVCAR-4 ovarian): 40.9 µM | TGI (MOLT-4 leukemia): 35.6 µM | TGI (UO-31 renal): > 90 µM | TGI (SNB-78 CNS): 81.6 µM | TGI (ACHN renal): > 90 µM | TGI (SNB-75 CNS): > 90 µM | TGI (OVCAR-8 ovarian): > 90 µM | TGI (786-0 renal): > 90 µM | TGI (IGROV1 ovarian): 37.7 µM | TGI (RXF 393 renal): > 90 µM | TGI (NCI-H226 lung): 62.3 µM | TGI (M19-MEL melanoma): 27.4 µM | TGI (M14 melanoma): 30.5 µM | TGI (NCI-H460 lung): 49.1 µM | TGI (SK-MEL-2 melanoma): > 90 µM | TGI (HL-60(TB) leukemia): 70.3 µM | TGI (A549 NSCLC): 52 µM | TGI (SF-539 CNS): > 90 µM | TGI (KM20L2 colon): 83.2 µM | TGI (HOP-92 NSCLC): 51.4 µM | TGI (U251 CNS): 32.9 µM | TGI (OVCAR-5 ovarian): > 9 µM | TGI (MALME-3M melanoma): > 90 µM | TGI (LXFL 529 NSCLC): 36.9 µM | TGI (UACC-257 melanoma): > 90 µM | TGI (SK-MEL-28 melanoma): 56.2 µM | TGI (DMS 114 small cell lung): 36 µM | TGI (SNB-19 CNS): > 90 µM | TGI (A498 renal): > 90 µM | TGI (KM12 colon): 65.3 µM | TGI (HOP-18 NSCLC): > 90 µM | TGI (SF-295 CNS): 36.5 µM | TGI (HCT-15 colon): 34.3 µM | TGI (DMS 273 small cell lung): 38.6 µM | TGI (HOP-62 NSCLC): 64.5 µM | TGI (SK-OV-3 ovarian): > 90 µM | TGI (SN12C renal): 26.7 µM | TGI (K-562 leukemia): 42.3 µM | TGI (COLO 205 colon): > 90 µM | TGI (TK-10 renal): > 90 µM | TGI (SF-268 CNS): 43 µM | TGI (SW-620 colon): 29.3 µM | TGI (CAKI-1 renal): 41.9 µM | TGI (CCRF-CEM leukemia): > 90 µM | TGI (HT29 colon): 40.2 µM | TGI (SK-MEL-5 melanoma): 29.1 µM
